Data published in patent publication US20230002372A1, “AZAINDOLE CARBOXAMIDE COMPOUNDS FOR THE TREATMENT OF MYCOBACTERIAL INFECTIONS” (THE GLOBAL ALLIANCE FOR TB DRUG DEVELOPMENT, INC., priority 2019, published 2023).
Converted amounts (≈) assume the structure as drawn.

tested on: M tb H37Rv; experiment: MIC determination against M tb H37Rv (green fluorescent protein reporter assay; MIC-MABA); assay type: cell-based, Mycobacterium tuberculosis; settings: M. tb H37Rv; 7H9 broth; 10 days exposure; MIC = lowest concentration inhibiting fluorescence by 90%

SMILES	M. TB H37Rv: MIC-MABA: MIC
Cc1cc(F)c2cc(C(=O)N[C@H]3C[C@H]4C[C@@H]([C@@H]3C)C4(C)C)[nH]c2n1 [MPL-043, 4-fluoro-6-methyl-N-[(1S,2S,3S,5R)-2,6,6-trimethylnorpinan-3-yl]-1H-pyrrolo[2,3-b]pyridine-2-carboxamide]	0.17 mg/L

same assay, conditions: Mycobacterium tuberculosis, H37RV, 240 h, read-out: M. TB H37Rv: MIC-MABA: MIC, M. tb H37Rv; 7H9 broth; 10 days exposure; MIC = lowest concentration inhibiting fluorescence by 90%

SMILES	MIC
O=C(NC1CCC2(CC1)CC2(F)F)c1cc2c(Cl)cncc2[nH]1 (stereo not drawn) [MPL-164, 4-chloro-N-(1,1-difluorospiro[2.5]octan-6-yl)-1H-pyrrolo[2,3-c]pyridine-2-carboxamide]	0.35 mg/L (≈ 1.03 µM)
C[C@@H]1[C@@H](NC(=O)c2cc3c(F)c(Cl)ncc3[nH]2)C[C@H]2C[C@@H]1C2(C)C [MPL-138, 5-chloro-4-fluoro-N-[(1S,2S,3S,5R)-2,6,6-trimethylnorpinan-3-yl]-1H-pyrrolo[2,3-c]pyridine-2-carboxamide]	2.9 mg/L (≈ 8.29 µM)
O=C(NC1CCCCCCC1)c1cc2c(F)cncc2[nH]1 [MPL-093, N-cyclooctyl-4-fluoro-1H-pyrrolo[2,3-c]pyridine-2-carboxamide]	1.1 mg/L (≈ 3.8 µM)
CC(C)Oc1cncc2[nH]c(C(=O)NC3CC[Si](C)(C)CC3)cc12 [MPL-382, N-(1,1-dimethylsilinan-4-yl)-4-isopropoxy-1H-pyrrolo[2,3-c]pyridine-2-carboxamide]	0.368 mg/L (≈ 1.07 µM)
CC1(C)CCC(NC(=O)c2cc3c(C#N)cncc3[nH]2)CC1 [MPL-097, 4-cyano-N-(4,4-dimethylcyclohexyl)-1H-pyrrolo[2,3-c]pyridine-2-carboxamide]	0.16 mg/L (≈ 0.54 µM)
Cc1cc(Cl)c2cc(C(=O)NC3CCC[Si](C)(C)CCC3)[nH]c2n1 [MPL-305]	0.015 mg/L (≈ 0.0412 µM)
Cc1ncc2[nH]c(C(=O)NC3CCC[Si](C)(C)CC3)c(C)c2c1F (stereo not drawn) [MPL-353, N-(1,1-dimethylsilepan-4-yl)-4-fluoro-3,5-dimethyl-1H-pyrrolo[2,3-c]pyridine-2-carboxamide]	0.124 mg/L (≈ 0.357 µM)
C[C@@H]1[C@@H](NC(=O)c2cc3cc(Cl)ncc3[nH]2)C[C@H]2C[C@@H]1C2(C)C [MPL-126, 5-chloro-N-[(1S,2S,3S,5R)-2,6,6-trimethylnorpinan-3-yl]-1H-pyrrolo[2,3-c]pyridine-2-carboxamide]	3.1 mg/L (≈ 9.34 µM)
COc1ccc2cc(C(=O)NC3CC[Si]4(CCCCC4)CC3)[nH]c2n1 [MPL-455, 6-methoxy-N-(6-silaspiro[5.5]undecan-3-yl)-1H-pyrrolo[2,3-b]pyridine-2-carboxamide]	0.121 mg/L (≈ 0.338 µM)
Cc1c(C(F)(F)F)ncc2[nH]c(C(=O)NC3CC[Si](C)(C)CC3)cc12 [MPL-376, N-(1,1-dimethylsilinan-4-yl)-4-methyl-5-(trifluoromethyl)-1H-pyrrolo[2,3-c]pyridine-2-carboxamide]	0.188 mg/L (≈ 0.509 µM)
Cc1nc2[nH]c(C(=O)NC3CC[Si](C)(C)CC3)cc2c(C)c1F [MPL-237, N-(1,1-dimethylsilinan-4-yl)-5-fluoro-4,6-dimethyl-1H-pyrrolo[2,3-b]pyridine-2-carboxamide]	0.047 mg/L (≈ 0.141 µM)
O=C(NC1CC[Si]2(CCCCC2)CC1)c1cc2c(F)c(C(F)(F)F)ncc2[nH]1 [MPL-368, 4-fluoro-N-(6-silaspiro[5.5]undecan-3-yl)-5-(trifluoromethyl)-1H-pyrrolo[2,3-c]pyridine-2-carboxamide]	0.49 mg/L (≈ 1.19 µM)
Cc1nc2[nH]c(C(=O)NC3CCCC[Si](C)(C)CC3)cc2c(F)c1Cl (stereo not drawn) [MPL-292, 5-chloro-N-(1,1-dimethylsilocan-4-yl)-4-fluoro-6-methyl-1H-pyrrolo[2,3-b]pyridine-2-carboxamide]	0.0271 mg/L (≈ 0.071 µM)
Cc1nc(Cl)c(F)c2cc(C(=O)NC3CC[Si](C)(C)CC3)[nH]c12 [MPL-236, 5-chloro-N-(1,1-dimethylsilinan-4-yl)-4-fluoro-7-methyl-1H-pyrrolo[2,3-c]pyridine-2-carboxamide]	0.18 mg/L (≈ 0.509 µM)
O=C(NC1CC[Si]2(CCCCC2)CC1)c1cc2cc(-c3ccccc3F)cnc2[nH]1 [MPL-434, 5-(2-fluorophenyl)-N-(6-silaspiro[5.5]undecan-3-yl)-1H-pyrrolo[2,3-b]pyridine-2-carboxamide]	0.061 mg/L (≈ 0.145 µM)
CC1(C)C2CCC1(C)C(NC(=O)c1cc3c(F)ccnc3[nH]1)C2 (stereo not drawn) [MPL-106, 4-fluoro-N-(1,7,7-trimethylnorbornan-2-yl)-1H-pyrrolo[2,3-b]pyridine-2-carboxamide]	0.16 mg/L (≈ 0.507 µM)
Cc1cc(Cl)c2cc(C(=O)N[C@@H]3CC[Si](C)(C)C3)[nH]c2n1 (single isomer, unassigned) [MPL-401A]	0.319 mg/L (≈ 0.991 µM)
Cc1nc2[nH]c(C(=O)NC3CC[Si]4(CCCCC4)CC3)cc2c(F)c1F [MPL-285, 4,5-difluoro-6-methyl-N-(6-silaspiro[5.5]undecan-3-yl)-1H-pyrrolo[2,3-b]pyridine-2-carboxamide]	0.016 mg/L (≈ 0.0424 µM)
O=C(NC1CC2CCC(C2)C1)c1cc2c(Cl)cncc2[nH]1 (stereo not drawn) [MPL-166, N-(3-bicyclo[3.2.1]octanyl)-4-chloro-1H-pyrrolo[2,3-c]pyridine-2-carboxamide]	0.39 mg/L (≈ 1.28 µM)
O=C(NC1CC[Si]2(CCCCC2)CC1)c1cc2c(F)cncc2[nH]1 [MPL-259, 4-fluoro-N-(6-silaspiro[5.5]undecan-3-yl)-1H-pyrrolo[2,3-c]pyridine-2-carboxamide]	0.054 mg/L (≈ 0.156 µM)
Cc1nc2[nH]c(C(=O)N[C@H]3CCC[Si](C)(C)CC3)cc2c(F)c1Cl (single isomer, unassigned) [MPL-316B]	0.25 mg/L (≈ 0.679 µM)

SMILES	MIC
C[Si]1(C)CCC(NC(=O)c2cc3c(F)cncc3[nH]2)CC1 [MPL-191, N-(1,1-dimethylsilinan-4-yl)-4-fluoro-1H-pyrrolo[2,3-c]pyridine-2-carboxamide]	0.0087 mg/L (≈ 0.0285 µM)
Cc1nc(F)cc2cc(C(=O)N[C@H]3C[C@H]4C[C@@H]([C@@H]3C)C4(C)C)[nH]c12 [MPL-134, 5-fluoro-7-methyl-N-[(1S,2S,3S,5R)-2,6,6-trimethylnorpinan-3-yl]-1H-pyrrolo[2,3-c]pyridine-2-carboxamide]	3.1 mg/L (≈ 9.41 µM)
Cc1nc2[nH]c(C(=O)N[C@H]3CCC[Si](C)(C)CC3)cc2c(F)c1F (single isomer, unassigned) [MPL-282B]	0.197 mg/L (≈ 0.56 µM)
C[Si]1(C)CCC(NC(=O)c2cc3c(Cl)c(C(F)(F)F)ncc3[nH]2)CC1 [MPL-329, 4-chloro-N-(1,1-dimethylsilinan-4-yl)-5-(trifluoromethyl)-1H-pyrrolo[2,3-c]pyridine-2-carboxamide]	0.491 mg/L (≈ 1.26 µM)
C[Si]1(C)CCC(NC(=O)c2cc3cc(-c4ccccc4)cnc3[nH]2)CC1 [MPL-391, N-(1,1-dimethylsilinan-4-yl)-5-phenyl-1H-pyrrolo[2,3-b]pyridine-2-carboxamide]	0.051 mg/L (≈ 0.14 µM)
C[Si]1(C)CCC(NC(=O)c2cc3c(F)ccnc3[nH]2)CC1 [MPL-109, N-(1,1-dimethylsilinan-4-yl)-4-fluoro-1H-pyrrolo[2,3-b]pyridine-2-carboxamide]	0.022 mg/L (≈ 0.072 µM)
C[Si]1(C)CCC(NC(=O)c2cc3cc(-c4cccnc4)cnc3[nH]2)CC1 [MPL-392, N-(1,1-dimethylsilinan-4-yl)-5-(3-pyridyl)-1H-pyrrolo[2,3-b]pyridine-2-carboxamide]	0.464 mg/L (≈ 1.27 µM)
O=C(NC1CC[Si]2(CCCCC2)CC1)c1cc2cc(-c3cccnc3)cnc2[nH]1 [MPL-435, 5-(3-pyridyl)-N-(6-silaspiro[5.5]undecan-3-yl)-1H-pyrrolo[2,3-b]pyridine-2-carboxamide]	1 mg/L (≈ 2.47 µM)
Cc1ncc2[nH]c(C(=O)N[C@H]3C[C@H]4C[C@@H]([C@@H]3C)C4(C)C)cc2c1F [MPL-140, 4-fluoro-5-methyl-N-[(1S,2S,3S,5R)-2,6,6-trimethylnorpinan-3-yl]-1H-pyrrolo[2,3-c]pyridine-2-carboxamide]	1.3 mg/L (≈ 3.95 µM)
CC1(C)C2CCC1(C)C(NC(=O)c1cc3c(C(F)(F)F)ccnc3[nH]1)C2 (stereo not drawn) [MPL-108, 4-(trifluoromethyl)-N-(1,7,7-trimethylnorbornan-2-yl)-1H-pyrrolo[2,3-b]pyridine-2-carboxamide]	0.02 mg/L (≈ 0.0547 µM)
COc1ccc2cc(C(=O)NC3CCC[Si](C)(C)CC3)[nH]c2n1 (stereo not drawn) [MPL-466, N-(1,1-dimethylsilepan-4-yl)-6-methoxy-1H-pyrrolo[2,3-b]pyridine-2-carboxamide]	0.119 mg/L (≈ 0.359 µM)
Cc1cc(F)c2cc(C(=O)N[C@H]3C[C@H]4C[C@@H]([C@@H]3C)C4(C)C)[nH]c2n1 [MPL-043, 4-fluoro-6-methyl-N-[(1S,2S,3S,5R)-2,6,6-trimethylnorpinan-3-yl]-1H-pyrrolo[2,3-b]pyridine-2-carboxamide]	0.14 mg/L (≈ 0.425 µM)
COc1ccc2cc(C(=O)NC3CCC[Si](C)(C)CCC3)[nH]c2n1 [MPL-469, N-(1,1-dimethylsilocan-5-yl)-6-methoxy-1H-pyrrolo[2,3-b]pyridine-2-carboxamide]	0.206 mg/L (≈ 0.596 µM)
Cc1nc2[nH]c(C(=O)NC3CCC[Si](C)(C)CCC3)cc2c(F)c1F [MPL-301, N-(1,1-dimethylsilocan-5-yl)-4,5-difluoro-6-methyl-1H-pyrrolo[2,3-b]pyridine-2-carboxamide]	0.015 mg/L (≈ 0.041 µM)
Cc1cc(Cl)c2cc(C(=O)NC3CC[Si]4(CCCC4)CC3)[nH]c2n1 [MPL-276, 4-chloro-6-methyl-N-(5-silaspiro[4.5]decan-8-yl)-1H-pyrrolo[2,3-b]pyridine-2-carboxamide]	0.015 mg/L (≈ 0.0414 µM)
Cc1c(C(F)(F)F)ncc2[nH]c(C(=O)NC3CCC[Si](C)(C)CC3)cc12 (stereo not drawn) [MPL-451, N-(1,1-dimethylsilepan-4-yl)-4-methyl-5-(trifluoromethyl)-1H-pyrrolo[2,3-c]pyridine-2-carboxamide]	0.99 mg/L (≈ 2.58 µM)
Cc1ncc2[nH]c(C(=O)NC3CC[Si](C)(C)CC3)c(C)c2c1F [MPL-352, N-(1,1-dimethylsilinan-4-yl)-4-fluoro-3,5-dimethyl-1H-pyrrolo[2,3-c]pyridine-2-carboxamide]	0.122 mg/L (≈ 0.366 µM)
C[C@@H]1[C@@H](NC(=O)c2cc3c(C#N)cncc3[nH]2)C[C@H]2C[C@@H]1C2(C)C [MPL-095, 4-cyano-N-[(1S,2S,3S,5R)-2,6,6-trimethylnorpinan-3-yl]-1H-pyrrolo[2,3-c]pyridine-2-carboxamide]	1.5 mg/L (≈ 4.65 µM)
Cc1nc2[nH]c(C(=O)NC3CC[Si]4(CCCC4)CC3)cc2c(F)c1F [MPL-284, 4,5-difluoro-6-methyl-N-(5-silaspiro[4.5]decan-8-yl)-1H-pyrrolo[2,3-b]pyridine-2-carboxamide]	0.026 mg/L (≈ 0.0715 µM)
Cc1nc2[nH]c(C(=O)N[C@H]3C[C@H]4C[C@H](C4(C)C)[C@@]3(C)O)cc2c(F)c1F [MPL-294, 4,5-difluoro-N-[(1R,2R,3S,5R)-2-hydroxy-2,6,6-trimethyl-norpinan-3-yl]-6-methyl-1H-pyrrolo[2,3-b]pyridine-2-carboxamide]	> 1 mg/L
